Test results published in patent publication US8796321B2, “Compounds, compositions and methods comprising oxadiazole derivatives” (PATH Drug Solutions, priority 2008, dated 2014).

Test system: cholera toxin (CTX) induced net fluid secretion in intestinal loops
Design: species or system mice (CD1 strain)
Conditions: mouse, in vivo

Structure (SMILES) | closed loop % inhibition @ 100 μg [%] | closed loop % inhibition @ 10 μg [%]
O=C(NCc1cccc(OC(F)(F)F)c1)c1noc(-c2cc(Cl)c(O)c(Cl)c2O)n1 [compound 120, 5-(3,5-dichloro-2,4-dihydroxyphenyl)-N-(3-(trifluoromethoxy)benzyl)-1,2,4-oxadiazole-3-carboxamide] | 62.3 | 
O=C(NCc1ccc(Oc2ccccc2)cc1)c1nc(-c2cc(Br)c(O)c(Br)c2)no1 [compound 13, 3-(3,5-dibromo-4-hydroxyphenyl)-N-(4-phenoxybenzyl)-1,2,4-oxadiazole-5-carboxamide] | 94.7 | 88.6
CC(C)(C)C(=O)CN(Cc1cccc(C(F)(F)F)c1)C(=O)c1nc(-c2cc(Br)c(O)c(Br)c2)no1 [compound 1, 3-(3,5-dibromo-4-hydroxyphenyl)-N-(3,3-dimethyl-2-oxobutyl)-N-(3-(trifluoromethyl)benzyl)-1,2,4-oxadiazole-5-carboxamide] | 87.1 | 69.4
O=C(NCc1cccc(OC(F)(F)F)c1)c1noc(-c2cc(Br)c(O)c(Br)c2)n1 [compound 65, 5-(3,5-dibromo-4-hydroxyphenyl)-N-(3-(trifluoromethoxy)benzyl)-1,2,4-oxadiazole-3-carboxamide] | 94.6 | 
O=C(NCc1cc(F)cc(F)c1)c1noc(-c2cc(Cl)c(O)c(Cl)c2)n1 [compound 112, 5-(3,5-dichloro-4-hydroxyphenyl)-N-(3,5-difluorobenzyl)-1,2,4-oxadiazole-3-carboxamide] | 51 | 
